According to the NIST ThermoML archive (doi:10.1021/je500083n):
Numbers after ± are expanded uncertainties.

Assay: xn = mol fraction of the nth substance listed
Conditions: Gas, Vibrating wire viscometry

C [methane] + CCC
x2 = 0.0548
Conditions | viscosity [mPa·s]
280.16 K, 610 kPa | 0.01039 ± 0.00017
280.16 K, 1550 kPa | 0.01051 ± 0.00013
280.17 K, 3150 kPa | 0.01083 ± 0.00016
280.17 K, 4970 kPa | 0.01143 ± 0.00019
280.18 K, 5880 kPa | 0.01179 ± 0.00016
280.2 K, 6560 kPa | 0.01211 ± 0.00016
280.21 K, 6970 kPa | 0.0123 ± 0.00015
298.18 K, 870 kPa | 0.01083 ± 0.00018
298.18 K, 1450 kPa | 0.01096 ± 0.00019
298.19 K, 4110 kPa | 0.01163 ± 0.00015
298.2 K, 2650 kPa | 0.01124 ± 0.00024
298.2 K, 5430 kPa | 0.01211 ± 0.00016
298.22 K, 6340 kPa | 0.01244 ± 0.00016
298.22 K, 6700 kPa | 0.01259 ± 0.00016

C [methane] + O=C=O
x1 = 0.57
Conditions | viscosity [mPa·s]
280.17 K, 6410 kPa | 0.01457 ± 5e-05
280.2 K, 5490 kPa | 0.01408 ± 5.6e-05
280.22 K, 4480 kPa | 0.01364 ± 0.00011
280.24 K, 3500 kPa | 0.01338 ± 0.00018
280.31 K, 2510 kPa | 0.0131 ± 0.00032
280.32 K, 1510 kPa | 0.01303 ± 0.00023
303.18 K, 5440 kPa | 0.01477 ± 8.4e-05
303.18 K, 6330 kPa | 0.01523 ± 0.0001
303.19 K, 3500 kPa | 0.01411 ± 6.8e-05
303.19 K, 4500 kPa | 0.0144 ± 9.2e-05
303.2 K, 1500 kPa | 0.01381 ± 0.00012
303.2 K, 2500 kPa | 0.01387 ± 0.00014
328.13 K, 6450 kPa | 0.01573 ± 0.0001
328.14 K, 3490 kPa | 0.01477 ± 6.8e-05
328.14 K, 4490 kPa | 0.01504 ± 9.4e-05
328.14 K, 5500 kPa | 0.01538 ± 8.4e-05
328.15 K, 2500 kPa | 0.01453 ± 0.00014
328.16 K, 1510 kPa | 0.01447 ± 0.00012
